Measured values from the supplement of paper PMC10307832.

Compound: CN(c1ncccc1CNc1nc(Nc2ccc3c(c2)CC(=O)N3)ncc1C(F)(F)F)S(C)(=O)=O + Cc1cc(Nc2cc(N3CCN(C)CC3)nc(Sc3ccc(NC(=O)C4CC4)cc3)n2)n[nH]1 [Tozasertib] (partner 0.1 µM)
Assay: relative viability (nuclei count vs DMSO), 5 days (fraction); higher = more cells survive
Summary of the method: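 Lung cancer cell lines were pin-tool dosed in 1536-well plates on the day after seeding, with either a lone drug or a fixed anchor-drug dose plus five library-drug doses (not always all listed) in √10 steps. Nuclei were counted on 4× images after 5 days. Relative viability is the ratio of treated-well to vehicle-well nuclei counts, with each value a median of duplicate plates.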

| Cell Line | relative viability (first compound 0.01 µM) | relative viability (first compound 0.03162 µM) | relative viability (first compound 0.1 µM) | relative viability (first compound 0.3162 µM) | relative viability (first compound 1 µM) |
| --- | --- | --- | --- | --- | --- |
| 201T | 0.921 | 1 | 0.912 | 0.845 | 0.894 |
| A-427 | 0.223 | 0.191 | 0.207 | 0.186 | 0.211 |
| ABC-1 | 0.173 | 0.161 | 0.158 | 0.137 | 0.172 |
| BEN | 0.416 | 0.562 | 0.506 | 0.541 | 0.471 |
| CAL-12T | 0.271 | 0.249 | 0.274 | 0.271 | 0.209 |
| COR-L23 | 0.184 | 0.195 | 0.186 | 0.146 | 0.129 |
| COR-L 105 | 0.365 | 0.322 | 0.341 | 0.399 | 0.247 |
| ChaGo-K-1 | 0.233 | 0.231 | 0.223 | 0.236 | 0.205 |
| EKVX | 0.456 | 0.428 | 0.454 | 0.339 | 0.316 |
| EMC-BAC-2 | 0.302 | 0.283 | 0.287 | 0.255 | 0.246 |
| EPLC-272H | 0.346 | 0.234 | 0.314 | 0.278 | 0.182 |
| H3255 | 0.808 | 0.599 | 0.775 | 0.571 | 0.51 |
| HARA | 0.11 | 0.117 | 0.116 | 0.0944 | 0.0785 |
| HCC-15 | 0.418 | 0.555 | 0.44 | 0.32 | 0.254 |
| HCC-44 | 1.02 | 0.926 | 0.94 |  | 0.804 |
| HCC-78 | 0.463 | 0.428 | 0.427 | 0.45 | 0.332 |
| HCC-366 | 0.129 | 0.143 | 0.126 | 0.0925 | 0.0651 |
| HCC-827 | 0.372 | 0.455 | 0.401 | 0.436 | 0.43 |
| HOP-62 | 0.408 | 0.42 | 0.391 | 0.318 | 0.262 |
| LC-2-ad | 0.417 | 0.433 | 0.546 | 0.426 | 0.442 |
| LCLC-97TM1 | 0.281 | 0.194 | 0.256 | 0.218 | 0.18 |
| LCLC-103H | 0.469 | 0.457 | 0.414 | 0.415 | 0.466 |
| LK-2 | 0.201 | 0.163 | 0.174 | 0.169 | 0.182 |
| LOU-NH91 | 0.641 | 0.674 | 0.647 | 0.645 | 0.576 |

| Cell Line | relative viability (first compound 0.01 µM) | relative viability (first compound 0.03162 µM) | relative viability (first compound 0.1 µM) | relative viability (first compound 0.3162 µM) | relative viability (first compound 1 µM) |
| --- | --- | --- | --- | --- | --- |
| LU99A | 0.319 | 0.301 | 0.297 | 0.258 | 0.246 |
| LXF-289 | 0.176 | 0.178 | 0.242 | 0.18 | 0.17 |
| NCI-H23 | 0.494 | 0.356 | 0.407 | 0.295 | 0.351 |
| NCI-H322M | 0.505 | 0.504 | 0.491 | 0.504 | 0.472 |
| NCI-H358 | 0.0908 | 0.102 | 0.0923 | 0.103 | 0.0817 |
| NCI-H441 | 0.697 | 0.628 | 0.581 | 0.583 | 0.512 |
| NCI-H460 | 0.499 | 0.464 | 0.491 | 0.137 | 0.396 |
| NCI-H520 | 0.485 | 0.474 | 0.467 | 0.546 | 0.429 |
| NCI-H596 | 0.886 | 0.938 | 0.899 | 0.813 | 0.632 |
| NCI-H647 | 0.315 | 0.224 | 0.498 | 0.353 | 0.248 |
| NCI-H650 | 0.713 | 0.712 | 0.637 | 0.622 | 0.608 |
| NCI-H661 | 0.294 | 0.334 | 0.361 | 0.372 | 0.353 |
| NCI-H727 | 0.675 | 0.549 | 0.571 | 0.543 | 0.52 |
| NCI-H838 | 0.27 | 0.336 | 0.261 | 0.272 | 0.19 |
| NCI-H1355 | 0.538 | 0.513 | 0.557 | 0.496 | 0.501 |
| NCI-H1395 | 0.724 | 0.806 | 0.784 | 0.856 | 0.782 |
| NCI-H1437 | 0.424 | 0.483 | 0.397 | 0.411 | 0.355 |
| NCI-H1648 | 0.433 | 0.36 | 0.317 | 0.386 | 0.407 |
| NCI-H1650 | 0.497 | 0.359 | 0.429 | 0.323 | 0.269 |
| NCI-H1651 | 0.67 | 0.719 | 0.671 | 0.681 | 0.515 |
| NCI-H1666 | 0.606 | 0.615 | 0.514 | 0.725 | 0.362 |
| NCI-H1734 | 0.239 | 0.273 | 0.27 | 0.269 | 0.258 |
| NCI-H1755 | 0.519 | 0.533 | 0.593 | 0.472 | 0.61 |
| NCI-H1793 | 0.32 | 0.379 | 0.332 | 0.222 | 0.23 |

| Cell Line | relative viability (first compound 0.01 µM) | relative viability (first compound 0.03162 µM) | relative viability (first compound 0.1 µM) | relative viability (first compound 0.3162 µM) | relative viability (first compound 1 µM) |
| --- | --- | --- | --- | --- | --- |
| NCI-H1915 | 0.488 | 0.488 | 0.462 | 0.424 | 0.373 |
| NCI-H1944 | 0.238 | 0.279 | 0.247 | 0.261 | 0.243 |
| NCI-H1975 | 0.737 | 0.793 | 0.784 | 0.665 | 0.46 |
| NCI-H1993 | 0.528 | 0.615 | 0.659 | 0.595 | 0.551 |
| NCI-H2009 | 0.631 | 0.696 | 0.744 | 0.693 | 0.625 |
| NCI-H2023 | 0.377 | 0.403 | 0.368 | 0.299 | 0.229 |
| NCI-H2085 | 0.797 | 0.721 | 0.772 | 0.697 | 0.584 |
| NCI-H2087 | 0.224 | 0.238 | 0.236 | 0.293 | 0.207 |
| NCI-H2126 | 0.793 | 0.91 | 0.85 | 0.787 | 0.714 |
| NCI-H2170 | 0.741 | 0.691 | 0.679 | 0.649 | 0.716 |
| NCI-H2228 | 0.271 | 0.243 | 0.249 | 0.239 | 0.207 |
| NCI-H2342 | 0.524 | 0.493 | 0.561 | 0.409 | 0.489 |
| NCI-H2347 | 0.544 | 0.626 | 0.672 | 0.44 | 0.478 |
| NCI-H2405 | 0.696 | 0.719 | 0.715 | 0.534 | 0.499 |
| NCI-H3122 | 0.61 | 0.383 | 0.403 | 0.402 | 0.341 |
| PC-3 [JPC-3] | 0.903 | 0.907 | 0.913 | 0.847 | 0.832 |
| PC-14 | 0.531 | 0.705 | 0.54 | 0.59 | 0.52 |
| RERF-LC-KJ | 0.468 | 0.466 | 0.467 | 0.514 | 0.348 |
| SK-LU-1 | 0.339 | 0.308 | 0.307 | 0.294 | 0.262 |
| SK-MES-1 | 0.896 | 0.923 | 0.852 | 0.836 | 0.47 |
| SW 900 | 0.547 | 0.629 | 0.543 | 0.495 | 0.446 |
| SW 1573 | 0.166 | 0.198 | 0.188 | 0.201 | 0.16 |
| UMC-11 | 0.198 | 0.184 | 0.187 | 0.181 | 0.206 |
